Calls of active or inactive are those of the source. No cut-off for these calls is given here.
Tests used:
Proteus vulgaris [1] = assay: Bactericidal activity against Proteus vulgaris NCTC 4635 cultured in MH medium assessed as reduction in bacterial survival incubated for 48 hrs by microbroth dilution method; assay type: functional; settings: NCTC 4635, 48 h
Pseudomonas aeruginosa [2] = assay: Biofilm degradation activity against Pseudomonas aeruginosa ATCC 9027 assessed as biofilm formation at 4 times antibacterial MIC incubated for 24 hrs compound added post-biofilm formation by total biomass crystal violet staining-based method; assay type: functional
Serratia marcescens [3] = assay: Antibacterial activity against Serratia marcescens ATCC 12795 cultured in MH medium assessed as reduction in bacterial growth incubated for 48 hrs by microbroth dilution method; assay type: functional; settings: ATCC 12795, 48 h
Staphylococcus aureus [4] = assay: Biofilm degradation activity against Staphylococcus aureus ATCC 6538 assessed as biofilm formation at antibacterial MIC incubated for 24 hrs compound added post-biofilm formation by total biomass crystal violet staining-based method; assay type: functional
Staphylococcus aureus [5] = assay: Antibacterial activity against Staphylococcus aureus ATCC 6538 cultured in MH medium assessed as reduction in bacterial growth incubated for 48 hrs by microbroth dilution method; assay type: functional; settings: ATCC 6538, 48 h
[6] = tested on: Staphylococcus epidermidis; assay: Bactericidal activity against Staphylococcus epidermidis ATCC 14990 cultured in MH medium assessed as reduction in bacterial survival incubated for 48 hrs by microbroth dilution method; assay type: functional; settings: ATCC 14990, 48 h
Staphylococcus aureus [7] = assay: Bactericidal activity against Staphylococcus aureus ATCC 6538 cultured in MH medium assessed as reduction in bacterial survival incubated for 48 hrs by microbroth dilution method; assay type: functional; settings: ATCC 6538, 48 h
Pseudomonas aeruginosa [8] = assay: Biofilm degradation activity against Pseudomonas aeruginosa ATCC 9027 assessed as biofilm formation at 2 times antibacterial MIC incubated for 24 hrs compound added post-biofilm formation by total biomass crystal violet staining-based method; assay type: functional
Escherichia coli [9] = assay: Antibacterial activity against Escherichia coli ATCC 8739 cultured in MH medium assessed as reduction in bacterial growth incubated for 48 hrs by microbroth dilution method; assay type: functional; settings: ATCC 8739, 48 h
Staphylococcus aureus [10] = assay: Antibacterial activity against methicillin resistant Staphylococcus aureus N315 cultured in MH medium assessed as reduction in bacterial growth incubated for 48 hrs by microbroth dilution method; assay type: functional; settings: N315, 48 h
[11] = Lipophilicity, log k of the compound at 100 ug/ml by micellar electrokinetic chromatography; assay type: physicochemical
[12] = biological target: DNA gyrase (Escherichia coli) (UniProt P0AES6+P0AES4); assay: Inhibition of Escherichia coli DNA gyrase super-coiling activity using relaxed pNO1 DNA as substrate assessed as enzyme residual activity at 1 uM incubated for 30 mins by fluorescence assay relative to control; assay type: protein-complex assay
Streptococcus pneumoniae = assay: Bactericidal activity against Streptococcus pneumoniae cultured in MH medium assessed as reduction in bacterial survival incubated for 48 hrs by microbroth dilution method; assay type: functional
Escherichia coli [13] = assay: Antibacterial activity against […] Escherichia coli ATCC 8739 assessed as reduction in bacterial growth incubated for 48 hrs in presence of 50 ug/ml […], PAbetaN by microbroth dilution method; assay type: functional; settings: ATCC 8739, 48 h
Staphylococcus aureus [14] = assay: Biofilm degradation activity against Staphylococcus aureus ATCC 6538 assessed as biofilm formation at 2 times antibacterial MIC incubated for 24 hrs compound added post-biofilm formation by total biomass crystal violet staining-based method; assay type: functional
Proteus vulgaris [15] = assay: Antibacterial activity against Proteus vulgaris NCTC 4635 cultured in MH medium assessed as reduction in bacterial growth incubated for 48 hrs by microbroth dilution method; assay type: functional; settings: NCTC 4635, 48 h
[16] = tested on: Staphylococcus epidermidis; assay: Antibacterial activity against methicillin resistant Staphylococcus epidermidis ATCC 13199 cultured in MH medium assessed as reduction in bacterial growth incubated for 48 hrs by microbroth dilution method; assay type: functional; settings: ATCC 13199, 48 h
Pseudomonas aeruginosa [17] = assay: Antibiofilm activity against Pseudomonas aeruginosa ATCC 9027 assessed as biofilm formation at antibacterial MIC incubated for 24 hrs compound added prior to bacterial biofilm formation by total biomass crystal violet staining-based method relative to control; assay type: functional
Staphylococcus aureus [18] = assay: Antibiofilm activity against Staphylococcus aureus ATCC 6538 assessed as biofilm formation at antibacterial MIC incubated for 24 hrs compound added prior to bacterial biofilm formation by total biomass crystal violet staining-based method relative to control; assay type: functional
Serratia marcescens [19] = assay: Bactericidal activity against Serratia marcescens ATCC 12795 cultured in MH medium assessed as reduction in bacterial survival incubated for 48 hrs by microbroth dilution method; assay type: functional; settings: ATCC 12795, 48 h
Staphylococcus aureus [20] = assay: Antibiofilm activity against Staphylococcus aureus ATCC 25923 assessed as reduction in biofilm biomass at >2.5 uM incubated for 24 hrs compound added prior to bacterial biofilm formation by crystal violet staining based assay; assay type: functional, organism-based
Escherichia coli [21] = assay: Bactericidal activity against Escherichia coli ATCC 8739 cultured in MH medium assessed as reduction in bacterial survival incubated for 48 hrs by microbroth dilution method; assay type: functional; settings: ATCC 8739, 48 h
Pseudomonas aeruginosa [22] = assay: Biofilm degradation activity against Pseudomonas aeruginosa ATCC 9027 assessed as biofilm formation at antibacterial MIC incubated for 24 hrs compound added post-biofilm formation by total biomass crystal violet staining-based method; assay type: functional
Staphylococcus aureus [23] = assay: Antibacterial activity against methicillin resistant Staphylococcus aureus 6347 cultured in MH medium assessed as reduction in bacterial growth incubated for 48 hrs by microbroth dilution method; assay type: functional; settings: Staphylococcus aureus, 6347, 48 h
[24] = tested on: Staphylococcus epidermidis; assay: Antibacterial activity against Staphylococcus epidermidis ATCC 14990 cultured in MH medium assessed as reduction in bacterial growth incubated for 48 hrs by microbroth dilution method; assay type: functional; settings: ATCC 14990, 48 h
Staphylococcus aureus [25] = assay: Antibiofilm activity against Staphylococcus aureus ATCC 6538 assessed as biofilm formation at 0.5 times antibacterial MIC incubated for 24 hrs compound added prior to bacterial biofilm formation by total biomass crystal violet staining-based method relative to control; assay type: functional
Staphylococcus aureus [26] = assay: Antibiofilm activity against Staphylococcus aureus ATCC 25923 assessed as reduction in biofilm viability at 2.5 to 20 uM incubated for 24 hrs compound added prior to bacterial biofilm formation by resazurin staining based assay relative to control; assay type: functional
Pseudomonas aeruginosa [27] = assay: Bactericidal activity against Pseudomonas aeruginosa ATCC 9027 cultured in MH medium assessed as reduction in bacterial survival incubated for 48 hrs by microbroth dilution method; assay type: functional; settings: ATCC 9027, 48 h
Staphylococcus aureus [28] = assay: Bactericidal activity against methicillin resistant Staphylococcus aureus N315 cultured in MH medium assessed as reduction in bacterial survival incubated for 48 hrs by microbroth dilution method; assay type: functional; settings: N315, 48 h
Bacillus spizizenii = assay: Antibacterial activity against Bacillus subtilis ATCC 6633 cultured in MH medium assessed as reduction in bacterial growth incubated for 48 hrs by microbroth dilution method; assay type: functional; settings: ATCC 6633, 48 h
HEK293 = assay: Cytotoxicity against human HEK293 cells assessed as changes in cell morphology upto 20 uM incubated for 72 hrs by MTT assay; assay type: cell-based; settings: hek293, 72 h
Pseudomonas aeruginosa [29] = assay: Antibacterial activity against Pseudomonas aeruginosa ATCC 9027 cultured in MH medium assessed as reduction in bacterial growth incubated for 48 hrs by microbroth dilution method; assay type: functional; settings: ATCC 9027, 48 h
Enterococcus hirae = assay: Antibacterial activity against Enterococcus hirae ATCC 1052 cultured in BHI medium assessed as reduction in bacterial growth incubated for 48 hrs by microbroth dilution method; assay type: functional; settings: ATCC 1052, 48 h
Escherichia coli [30] = assay: Bactericidal activity against […] Escherichia coli ATCC 8739 assessed as reduction in bacterial survival incubated for 48 hrs in presence of 50 ug/ml […], PAbetaN by microbroth dilution method; assay type: functional; settings: ATCC 8739, 48 h

SMILES	MBC (Proteus vulgaris [1]) [µg/mL]	Activity (Pseudomonas aeruginosa [2]) [%]	MIC (Serratia marcescens [3]) [µg/mL]	Activity (Staphylococcus aureus [4]) [%]	MIC (Staphylococcus aureus [5]) [µg/mL]	MBC [6] [µg/mL]	MBC (Staphylococcus aureus [7]) [µg/mL]	Activity (Pseudomonas aeruginosa [8]) [%]	MIC (Escherichia coli [9]) [µg/mL]	MIC (Staphylococcus aureus [10]) [µg/mL]	log K [11]	Activity [12] [%]	MBC (Streptococcus pneumoniae) [µg/mL]	MIC (Escherichia coli [13]) [µg/mL]	Activity (Staphylococcus aureus [14]) [%]	MIC (Proteus vulgaris [15]) [µg/mL]	MIC [16] [µg/mL]	Activity (Pseudomonas aeruginosa [17]) [%]	Activity (Staphylococcus aureus [18]) [%]	MBC (Serratia marcescens [19]) [µg/mL]	also measured
CCn1cc(C(=O)O)c(=O)c2cc(F)c(N3CC[N+]4(CC3)CN3C(=N4)C(C(=O)O)=Cc4ccccc43)nc21.[Cl-]	0.5	42	8	45	8	4	8	43	1	8	-0.2387	100	512	0.5	21	0.25	2	16	18	16	inhibition (Staphylococcus aureus [20]): Active; MBC (Escherichia coli [21]): 2 µg/mL; Activity (Pseudomonas aeruginosa [22]): 61%; MIC (Staphylococcus aureus [23]): 4 µg/mL; MIC [24]: 4 µg/mL; Activity (Staphylococcus aureus [25]): 35%; inhibition (INH) (Staphylococcus aureus [26]): 100%; MBC (Pseudomonas aeruginosa [27]): 1 µg/mL; MBC (Staphylococcus aureus [28]): 8 µg/mL; MIC (Bacillus spizizenii): 2 µg/mL; Activity (HEK293): Non-Toxic; MIC (Pseudomonas aeruginosa [29]): 1 µg/mL; MIC (Enterococcus hirae): 512 µg/mL; MBC (Escherichia coli [30]): 1 µg/mL
CCn1cc(C(=O)O)c(=O)c2cc(F)c(N3CC[N+]4(CN5C(=N4)C(C(=O)O)=Cc4ccccc45)C(C)C3)c(F)c21.[Cl-] (configuration not stated)	0.125	47	2	60	2	4	2	51	0.25	2	-0.265	97	512	0.125	44	0.125	1	53	69	2	inhibition (Staphylococcus aureus [20]): Active; MBC (Escherichia coli [21]): 0.5 µg/mL; Activity (Pseudomonas aeruginosa [22]): 65%; MIC (Staphylococcus aureus [23]): 4 µg/mL; MIC [24]: 4 µg/mL; Activity (Staphylococcus aureus [25]): 47%; inhibition (INH) (Staphylococcus aureus [26]): 100%; MBC (Pseudomonas aeruginosa [27]): 1 µg/mL; MBC (Staphylococcus aureus [28]): 2 µg/mL; MIC (Bacillus spizizenii): 0.5 µg/mL; Activity (HEK293): Non-Toxic; MIC (Pseudomonas aeruginosa [29]): 1 µg/mL; MIC (Enterococcus hirae): 512 µg/mL; MBC (Escherichia coli [30]): 0.25 µg/mL
O=C(O)C1=Cc2ccccc2N2C[N+]3(CCN(c4cc5c(cc4F)c(=O)c(C(=O)O)cn5C4CC4)CC3)N=C12.[Cl-]	0.063	30	1	21	4	2	4	39	2	4	-0.1527	97	512	0.25	28	0.063	1	13	6	2	inhibition (Staphylococcus aureus [20]): Active; MBC (Escherichia coli [21]): 2 µg/mL; Activity (Pseudomonas aeruginosa [22]): 49%; MIC (Staphylococcus aureus [23]): 2 µg/mL; MIC [24]: 2 µg/mL; Activity (Staphylococcus aureus [25]): 6%; inhibition (INH) (Staphylococcus aureus [26]): 100%; MBC (Pseudomonas aeruginosa [27]): 2 µg/mL; MBC (Staphylococcus aureus [28]): 4 µg/mL; MIC (Bacillus spizizenii): 1 µg/mL; Activity (HEK293): Non-Toxic; MIC (Pseudomonas aeruginosa [29]): 2 µg/mL; MIC (Enterococcus hirae): > 512 µg/mL; MBC (Escherichia coli [30]): 0.5 µg/mL

Reference: ChEMBL document CHEMBL4396913, “Synthesis and biological evaluation of hybrid quinolone-based quaternary ammonium antibacterial agents” (Eur J Med Chem, 2019)
